Test results from patent US20190077840A1, “SELECTIVE MCL-1 BINDING PEPTIDES” (MASSACHUSETTS INSTITUTE OF TECHNOLOGY, priority 2015, published 2019).
Numbered stars: 1 amine (or outer) side, 2 acyl side, 3 side chain; on linkers, the order of the positions; unused ones are H or OH. Bridge positions count the residues as written; N and C are the ends. Square brackets hold non-standard residues; d marks the D form. Peptide text beside a SMILES is read from it. ξ: configuration not given here. ξαMeNle(6-ylidene) = CC(CCCC=[*:3])(N[*:1])C(=O)[*:2]; Cha = N[C@@H](CC1CCCCC1)C(=O)O; Nle = CCCC[C@H](N)C(=O)O; Aib = CC(C)(N)C(=O)O

Columns and labels:
[1] = tested on: chymotrypsin; assay: Protease resistance: HPLC half-lives of peptides exposed to chymotrypsin
[2] = tested on: Mcl-1/Myc 2640; type: cell-based, murine
From the text: (§1) A whole-cell BH3 profiling experiment quantifies the dependence of cancer cell mitochondrial integrity on specific anti-apoptotic proteins and can be predictive of cellular responses to chemotherapy (Ryan, J. A.; Brunelle, J. K.; Letai, A. Proc. Natl. Acad. Sci. 2010, 107 (29), 12895 and Ryan, J. A; Letai, A. Methods 2013, 61(2), 156). In this assay, permeabilized cells are stained with dye JC1 to monitor mitochondrial membrane integrity in response to increasing doses of BH3 peptides. We used this assay to test the specificity of our Mcl-1-binding stapled peptides in cell lines with different established dependencies on Bcl-xL and Mcl-1. Mcl-1/Myc 2640 is an engineered murine leukemia cell line overexpressing murine Mcl-1 and Myc, and MDA-MB 231 is a human breast cancer cell line with a primed Bcl-xL-dependent pro-file (Brunelle, J. K.; Ryan, J.; Yecies, D.; Opferman, J. T.; Letai, A. J Cell Biol. 2009, 187 (3), 429 and Ryan, J. A.; Brunelle, J. K.; Letai, A. Proc. Natl. Acad. Sci. 2010, 107 (29), 12895). By BH3 profiling using native BH3 peptides from BAD and NOXAA, we confirmed cell line dependencies on these anti-apoptotic proteins (FIG. 3). […] Mcl-1 2640 cell line is dependent on Mcl-1 whereas MDA-MB-231 is dependent on Bcl-xL, as indicated by response to NoxA and Bad, respectively. […]

[3] = tested on: MDA-MB 231; type: cell-based, human
From the text: as §1

[4] = molecular target: Mcl-1 (Homo sapiens, UniProt Q07820); assay: Competition fluorescence polarization/anisotropy assay with fluoresceinated Bim BH3 peptide for binding to Mcl-1
Mcl-1, sequence (Q07820 whole entry): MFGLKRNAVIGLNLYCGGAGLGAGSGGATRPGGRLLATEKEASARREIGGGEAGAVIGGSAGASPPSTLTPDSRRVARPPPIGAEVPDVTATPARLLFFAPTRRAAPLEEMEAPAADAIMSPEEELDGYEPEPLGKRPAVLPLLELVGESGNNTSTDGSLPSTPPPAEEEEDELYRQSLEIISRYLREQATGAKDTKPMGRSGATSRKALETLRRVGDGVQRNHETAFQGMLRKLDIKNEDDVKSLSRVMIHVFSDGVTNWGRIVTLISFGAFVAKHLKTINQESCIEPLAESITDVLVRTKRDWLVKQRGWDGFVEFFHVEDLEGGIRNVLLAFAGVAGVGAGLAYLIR
From the text: (§2) The standard errors reported are over three experiments.
Position 2e is usually conserved as small (alanine, glycine, serine) in natural BH3 sequences.

[5] = tested on: Bax/Bak deficient cells; assay: Whole-cell BH3 profiling in Bax/Bak deficient cells (BBDL); type: cell-based; conditions: Bax/Bak independent activity indicates non-specific toxicity
[6] = Circular dichroism spectroscopy (helicity); type: physicochemical; conditions: more helical than MS1
Procedure: as §2
The secondary structure of selected stapled peptides was assessed by circular dichroism (CD) spectroscopy (FIG. 1(c)). […] Therefore, the increases in helicity can be attributed to both helix-inducing substitutions: Aib at 2e and Cha at 3a (Armstrong, K. M.; Fairman, R.; Baldwin, R. L. J. Mol Biol. 1993, 230 (1), 284. and Venkatraman, J.; Shankaramma, S. C.; Balaram, P. Chem. Rev. 2001, 101 (10), 3131).

CCCC[C@H](NC(=O)[C@H](Cc1c[nH]c2ccccc12)NC(=O)[C@@H](N)[C@@H](C)CC)C(=O)NC(C)(C)C(=O)N[C@@H](CCC(N)=O)C(=O)NCC(=O)N[C@@H](CC(C)C)C(=O)N[C@@H](CCCNC(=N)N)C(=O)N[C@@H](CCCNC(=N)N)C(=O)N[C@@H](CC(C)C)C(=O)NCC(=O)N[C@@H](CC(=O)O)C(=O)N[C@@H](CCC(=O)O)C(=O)N[C@H](C(=O)NC1(C)CCCC=CCCCC(C)(C(=O)N[C@@H](CCCNC(=N)N)C(=O)N[C@@H](CCCNC(=N)N)C(N)=O)NC(=O)[C@H](Cc2ccc(O)cc2)NC(=O)[C@H](Cc2ccc(O)cc2)NC(=O)[C@H](C)NC1=O)[C@@H](C)CC (stereo partly shown) [M2d, IWBAibQGLRRLGDEIXAYYXRR] (H-IW[Nle][Aib]QGLRRLGDEI[ξαMeNle(6-ylidene)]AYY[ξαMeNle(6-ylidene)]RR-NH2; staple 15-19)
half-lives (protease resistance) compared to M1d [1]: longer half-lives

CCCC[C@H](NC(=O)[C@H](Cc1c[nH]c2ccccc12)NC(=O)[C@@H](N)[C@@H](C)CC)C(=O)NC(C)(C)C(=O)N[C@@H](CCC(N)=O)C(=O)NCC(=O)N[C@@H](CC1CCCCC1)C(=O)N[C@@H](CCCNC(=N)N)C(=O)N[C@@H](CCCNC(=N)N)C(=O)N[C@@H](CC(C)C)C(=O)NCC(=O)N[C@@H](CC(=O)O)C(=O)N[C@@H](CCC(=O)O)C(=O)N[C@H](C(=O)NC1(C)CCCC=CCCCC(C)(C(=O)N[C@@H](CCCNC(=N)N)C(=O)N[C@@H](CCCNC(=N)N)C(N)=O)NC(=O)[C@H](Cc2ccc(O)cc2)NC(=O)[C@H](Cc2ccc(O)cc2)NC(=O)[C@H](C)NC1=O)[C@@H](C)CC (stereo partly shown) [M3d, IWBAibQGChaRRLGDEIXAYYXRR] (H-IW[Nle][Aib]QG[Cha]RRLGDEI[ξαMeNle(6-ylidene)]AYY[ξαMeNle(6-ylidene)]RR-NH2; staple 15-19)
EC50 [2]: 30 nM | half-lives (protease resistance) compared to M1d [1]: longer half-lives | EC50 [3]: > 5000 nM

IWBTQGLRRLGDEIXAYYXRR [M1d]
Mcl-1-binding affinity in comparison to MS1 [4]: improved | activity in Bax/Bak deficient cells [5]: Bax/Bak independent activity | helicity in solution relative to MS1 [6]: ~3 fold
